These results are taken from ChEMBL document CHEMBL3352662, “Flow synthesis and biological activity of aryl sulfonamides as selective carbonic anhydrase IX and XII inhibitors” (Bioorg Med Chem Lett, 2014).

In experiment [1] the target is T1, Carbonic anhydrase 2 (Homo sapiens, UniProt P00918). As to the kind of experiment: Inhibition of CA-2 (unknown origin) after 15 mins by CO2 hydration assay.
In experiment [2] the target is T2, Carbonic anhydrase 1 (Homo sapiens, UniProt P00915). Nature of the experiment: Inhibition of CA-1 (unknown origin) at 10 uM after 15 mins by CO2 hydration assay.
Target sequence in this assay (P00915 2-261 limits assumed): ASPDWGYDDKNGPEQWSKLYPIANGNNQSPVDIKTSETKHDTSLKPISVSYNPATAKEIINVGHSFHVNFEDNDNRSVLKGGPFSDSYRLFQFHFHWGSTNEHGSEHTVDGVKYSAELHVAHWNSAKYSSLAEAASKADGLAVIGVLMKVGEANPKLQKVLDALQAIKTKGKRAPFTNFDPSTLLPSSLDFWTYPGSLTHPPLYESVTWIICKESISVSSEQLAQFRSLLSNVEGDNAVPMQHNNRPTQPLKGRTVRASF
For experiment [3], the target named is T2, Carbonic anhydrase 1. Nature of the experiment: Inhibition of CA-1 (unknown origin) after 15 mins by CO2 hydration assay.
Target sequence in this assay (P00915 whole entry): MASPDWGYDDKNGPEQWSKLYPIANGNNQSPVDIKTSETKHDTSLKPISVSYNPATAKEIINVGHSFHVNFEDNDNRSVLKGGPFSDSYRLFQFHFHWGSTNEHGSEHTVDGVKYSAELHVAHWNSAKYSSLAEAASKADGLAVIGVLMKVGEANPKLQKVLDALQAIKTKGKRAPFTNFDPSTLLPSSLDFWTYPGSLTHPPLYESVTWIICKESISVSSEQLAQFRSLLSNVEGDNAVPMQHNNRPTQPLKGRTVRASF
The target of experiment [4] is T1, Carbonic anhydrase 2. As to the kind of experiment: Inhibition of CA-2 (unknown origin) at 10 uM after 15 mins by CO2 hydration assay.
Experiment [5] deals with Carbonic anhydrase 9 (Homo sapiens, UniProt Q16790). As to the kind of experiment: Inhibition of CA-9 (unknown origin) after 15 mins by CO2 hydration assay.
Experiment [6] has as its target Carbonic anhydrase 12 (Homo sapiens, UniProt O43570). Nature of the experiment: Inhibition of CA-12 (unknown origin) after 15 mins by CO2 hydration assay.

Chain of Carbonic anhydrase 12 (O43570 whole entry): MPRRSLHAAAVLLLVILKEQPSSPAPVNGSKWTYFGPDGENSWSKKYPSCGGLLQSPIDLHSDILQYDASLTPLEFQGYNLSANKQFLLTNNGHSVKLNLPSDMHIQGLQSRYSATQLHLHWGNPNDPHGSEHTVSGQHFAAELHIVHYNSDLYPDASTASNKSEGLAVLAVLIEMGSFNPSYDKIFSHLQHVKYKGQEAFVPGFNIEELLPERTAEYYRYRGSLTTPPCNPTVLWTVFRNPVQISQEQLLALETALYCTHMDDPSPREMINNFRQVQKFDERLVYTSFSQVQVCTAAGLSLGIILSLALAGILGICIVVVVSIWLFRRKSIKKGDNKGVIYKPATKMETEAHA

For orientation: IC50 means the point on the concentration scale where inhibition reaches its midpoint. A word on the inhibition: it is the relative decrease from the control value, in per cent. `Cc1ccc(S(=O)(=O)Nc2ccccc2)cc1`: the IC50 is above 50 µM in experiment [1], above 50 µM in experiment [3] and 0.09 µM in experiment [5]. Moreover, the inhibition in experiment [2] turned out to be 35%; in experiment [4] it was 45%.
`O=[N+]([O-])c1ccc(S(=O)(=O)Nc2ccccc2)cc1`: the IC50 was 7.32 µM in experiment [1], above 50 µM in experiment [3] and 0.128 µM in experiment [5]. In experiment [2], this compound displayed an inhibition of 39%.
Turning to `COc1ccc(S(=O)(=O)Nc2ccccc2)cc1OC`, the IC50 in experiment [1] was above 50 µM; in experiment [3], above 50 µM; in experiment [6] it was 0.179 µM; in experiment [5], 0.079 µM. In addition, the inhibition in experiment [2] came out at 39%; in experiment [4], 45%.
Regarding `Cc1ccc(S(=O)(=O)NCCCN(C)C)cc1`, the IC50 in experiment [1] is 6.67 µM; in experiment [3], above 50 µM; in experiment [5], 0.094 µM. The same compound returned an inhibition in experiment [2] of 39%.
Turning to `Cc1ccc(S(=O)(=O)NCC(=O)O)cc1`, the values for the IC50 in experiment [1], in experiment [3] and in experiment [5] were 3.62 µM, above 50 µM and 0.217 µM, respectively. The inhibition in experiment [2] is 39%.
Consider `Cc1ccc(S(=O)(=O)NCc2ccccc2)cc1`, for which the IC50 in experiment [1] is above 50 µM; in experiment [3], above 50 µM; in experiment [6] it was 4.28 µM; in experiment [5] it was 0.076 µM. In addition, the inhibition came to 34% in experiment [2] and 44% in experiment [4].
Turning to `Cc1ccc(S(=O)(=O)Nc2ccccc2-c2ccccc2)cc1`, the IC50 in experiment [1] is 5.1 µM; in experiment [3], above 50 µM; in experiment [6], 0.226 µM; in experiment [5] it was 0.09 µM. Also, the inhibition in experiment [2] was 38%.
On to `CC(=O)c1ccc(S(=O)(=O)Nc2ccccc2)cc1`, for which the IC50 in experiment [1] is above 50 µM; in experiment [3], above 50 µM; in experiment [5], 0.074 µM. The inhibition worked out at 36% in experiment [2] and 47% in experiment [4].
Take `CCCC(C)NS(=O)(=O)c1ccc(C)cc1` (centres undefined): the IC50 in experiment [1] was 8.07 µM; in experiment [3], above 50 µM; in experiment [5], 0.07 µM. The compound further showed an inhibition in experiment [2] of 40%.
On to `Cc1ccc(S(=O)(=O)N(C)c2ccccc2)cc1`, for which the IC50 in experiment [1] is above 50 µM; in experiment [3], above 50 µM; in experiment [6], 0.266 µM; in experiment [5] it was 0.093 µM. The results for the inhibition in experiment [2] and in experiment [4] were 39% and 45%, respectively.
